Results on one molecule are retold here after patent US20170355691A1, “PESTICIDALLY ACTIVE HETEROCYCLIC DERIVATIVES WITH SULPHUR CONTAINING SUBSTITUENTS” (Syngenta Participations AG, priority 2015, published 2017).

Type in all cases: in vivo
Assay [1] concerns Diabrotica balteata (corn root worm). Nature of the assay: Activity against Diabrotica balteata, maize sprouts (Example B3). To be noted: 96 h, L2 larvae on maize sprouts, 4 days after infestation, read-out: effect in at least one of the two categories (mortality or growth inhibition). As for the experimental part: Example B3: Activity Against Diabrotica balteata (Corn Root Worm)
Maize sprouts, placed on an agar layer in 24-well microtiter plates were treated with aqueous test solutions prepared from 10′000 ppm DMSO stock solutions by spraying. After drying, the plates were infested with L2 larvae (6 to 10 per well). The samples were assessed for mortality and growth inhibition in comparison to untreated samples 4 days after infestation. The following compounds gave an effect of at least 80% in at least one of the two categories (mortality or growth inhibition) at an application rate of 200 ppm: P1.1, P1.2, P1.6, P1.7, P1.8, P1.9, P1.10, P1.13, P1.14, P1.15, P1.16, P1.17 and P1.18.

The test system of assay [2] is Spodoptera littoralis (Egyptian cotton leaf worm). Nature of the assay: Activity against Spodoptera littoralis, cotton leaf disc spray (Example B1). To be noted: foliar, 72 h, L1 larvae on cotton leaf discs, 3 days after infestation, read-out: control in at least one of the three categories (mortality, anti-feedancy or growth inhibition). As for the experimental part: Example B1: Activity Against Spodoptera littoralis (Egyptian Cotton Leaf Worm)
Cotton leaf discs were placed on agar in 24-well microtiter plates and sprayed with aqueous test solutions prepared from 10′000 ppm DMSO stock solutions. After drying the leaf discs were infested with five L1 larvae. The samples were assessed for mortality, anti-feedant effect, and growth inhibition in comparison to untreated samples 3 days after infestation. Control of Spodoptera littoralis by a test sample is when at least one of mortality, anti-feedant effect, and growth inhibition is higher than the untreated sample. The following compounds gave an effect of at least 80% control in at least one of the three categories (mortality, anti-feedancy or growth inhibition) at an application rate of 200 ppm: P1.2, P1.3, P1.6, P1.7, P1.8, P1.9, P1.10, P1.12, P1.13, P1.14, P1.15, P1.16, P1.17 and P1.18.

The subject of assay [3] is Myzus persicae (green peach aphid). The experiment in a line: Activity against Myzus persicae, sunflower leaf disc spray (Example B5). To be noted: foliar, 144 h, mixed-age aphid population on sunflower leaf discs, 6 days after infestation. As for the experimental part: Example B5: Activity Against Myzus persicae (Green Peach Aphid)
Sunflower leaf discs were placed on agar in a 24-well microtiter plate and sprayed with aqueous test solutions prepared from 10′000 ppm DMSO stock solutions. After drying, the leaf discs were infested with an aphid population of mixed ages. The samples were assessed for mortality 6 days after infestation.

Assay [4] concerns Anopheles stephensi (Indian malaria mosquito). The experiment in a line: Activity against Anopheles stephensi, dry deposit in tissue culture plates (Example B11). To be noted: 200 ppm in ethanol, adult females, after 48 h and/or 24 h. As for the experimental part: Example B11: Activity Against Anopheles stephensi (Indian Malaria Mosquito)
Test solutions, at an application rate of 200 ppm in ethanol, were applied to 12 well tissue culture plates. Once the deposits were dry, five, two to five day old adult female Anopheles stephensi were added to each well, and sustained with a 10% sucrose solution in a cotton wool plug. Assessment of knockdown was made one hour after introduction, and mortality was assessed at 24 and 48 hours after introduction. The following compounds gave at least 80% control of Anopheles stephensi after 48 h and/or 24 h: P1.14.

The subject of assay [5] is Euschistus heros (neotropical brown stink bug). Nature of the assay: Activity against Euschistus heros, soybean leaf spray (Example B7). The note with it: 120 h, N-2 nymphs on soybean leaf, 5 days after infestation. As for the experimental part:
Example B7: Activity Against Euschistus heros (Neotropical Brown Stink Bug)
Soybean leaf on agar in 24-well microtiter plates were sprayed with aqueous test solutions prepared from 10′000 ppm DMSO stock solutions. After drying the leaf were infested with N-2 nymphs. The samples were assessed for mortality 5 days after infestation.

The subject of assay [6] is Plutella xylostella (diamond back moth). The experiment in a line: Activity against Plutella xylostella, artificial diet (Example B2). The note with it: 120 h, L2 larvae on artificial diet, 5 days after infestation, read-out: effect in at least one of the two categories (mortality or growth inhibition). As for the experimental part:
Example B2: Activity Against Plutella xylostella (Diamond Back Moth)
24-well microtiter plates with artificial diet were treated with aqueous test solutions prepared from 10′000 ppm DMSO stock solutions by pipetting. After drying, the plates were infested with L2 larvae (10 to 15 per well). The samples were assessed for mortality and growth inhibition in comparison to untreated samples 5 days after infestation. The following compounds gave an effect of at least 80% in at least one of the two categories (mortality or growth inhibition) at an application rate of 200 ppm: P1.3, P1.6, P1.7, P1.8, P1.9, P1.13, P1.14, P1.15, P1.16, P1.17 and P1.18.

SMILES strings stand for the structures.

Consider `CCS(=O)(=O)c1cc(C(F)(F)F)ccc1-n1cc(-c2ccc(C(F)(F)F)nc2)cn1` [Compound P1.14], for which the percent effect (mortality or growth inhibition) at 200 ppm in assay [1] and in assay [6] was no less than 80% in each case. Moreover, the percent control (mortality, anti-feedant effect or growth inhibition) at 200 ppm in assay [2] is no less than 80%. For the same molecule, the mortality at 200 ppm in assay [3] and in assay [5] was no less than 80% throughout. Moreover, in assay [4], the “control of Anopheles stephensi” value was “at least 80%”.

The term mortality denotes the percentage killed. A higher mortality goes with a strong lethal effect.
